According to ChEMBL document CHEMBL1138698, “Ketoamide-based inhibitors of cysteine protease, cathepsin K: P3 modifications” (J Med Chem, 2004):

Key:
Cathepsin K = target: T1, Cathepsin K (Homo sapiens, UniProt P43235); assay: Inhibitory potency against human Cathepsin K
T1 sequence (P43235 whole entry): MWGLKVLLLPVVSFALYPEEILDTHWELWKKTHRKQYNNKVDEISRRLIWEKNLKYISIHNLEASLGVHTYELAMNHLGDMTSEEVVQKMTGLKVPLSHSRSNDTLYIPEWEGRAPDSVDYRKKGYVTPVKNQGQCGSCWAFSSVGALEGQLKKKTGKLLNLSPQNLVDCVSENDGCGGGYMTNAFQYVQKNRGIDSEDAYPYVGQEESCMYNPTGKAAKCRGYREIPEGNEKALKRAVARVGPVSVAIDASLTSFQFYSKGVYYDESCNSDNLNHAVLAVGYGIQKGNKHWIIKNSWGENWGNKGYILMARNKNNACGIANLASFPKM

[1] = target: Cathepsin (S and K) (Homo sapiens) (UniProt P25774+P43235); assay: Selectivity for human Cathepsins S and K; type: protein assay
[2] = target: Cathepsin (H and K) (Homo sapiens) (UniProt P09668+P43235); assay: Selectivity for human Cathepsins H and K; type: protein assay
[3] = target: Cathepsin (L and K) (Homo sapiens) (UniProt P43235+P07711); assay: Selectivity for human Cathepsins L and K; type: protein assay
[4] = target: Cathepsin (B and K) (Homo sapiens) (UniProt P43235+P07858); assay: Selectivity for human Cathepsins B and K; type: protein assay
[5] = target: Cathepsin (V and K) (Homo sapiens) (UniProt P43235+O60911); assay: Selectivity for human Cathepsins V and K; type: protein assay
Cathepsin (V and K) (Homo sapiens), sequence (O60911 whole entry, looked up, one chain of several): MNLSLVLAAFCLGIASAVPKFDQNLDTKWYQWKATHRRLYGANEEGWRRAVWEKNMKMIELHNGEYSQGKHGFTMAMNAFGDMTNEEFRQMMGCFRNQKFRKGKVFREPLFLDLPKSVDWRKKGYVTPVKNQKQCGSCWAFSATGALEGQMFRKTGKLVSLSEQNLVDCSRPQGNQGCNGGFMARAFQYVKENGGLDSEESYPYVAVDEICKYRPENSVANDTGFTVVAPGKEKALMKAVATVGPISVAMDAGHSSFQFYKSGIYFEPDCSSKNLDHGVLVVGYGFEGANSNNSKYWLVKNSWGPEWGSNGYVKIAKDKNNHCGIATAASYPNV

Cathepsin (S and K) (Homo sapiens), sequence (P25774 whole entry, looked up, one chain of several): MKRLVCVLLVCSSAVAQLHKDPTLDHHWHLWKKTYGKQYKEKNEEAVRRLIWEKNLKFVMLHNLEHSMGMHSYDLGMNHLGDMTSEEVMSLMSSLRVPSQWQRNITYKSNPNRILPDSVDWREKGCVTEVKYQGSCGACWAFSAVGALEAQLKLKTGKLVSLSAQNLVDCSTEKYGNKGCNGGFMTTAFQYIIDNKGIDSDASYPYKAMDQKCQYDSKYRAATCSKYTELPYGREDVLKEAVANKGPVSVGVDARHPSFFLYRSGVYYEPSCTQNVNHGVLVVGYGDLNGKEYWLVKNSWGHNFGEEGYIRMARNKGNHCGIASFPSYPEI
Cathepsin (L and K) (Homo sapiens), sequence (P07711 whole entry, looked up, one chain of several): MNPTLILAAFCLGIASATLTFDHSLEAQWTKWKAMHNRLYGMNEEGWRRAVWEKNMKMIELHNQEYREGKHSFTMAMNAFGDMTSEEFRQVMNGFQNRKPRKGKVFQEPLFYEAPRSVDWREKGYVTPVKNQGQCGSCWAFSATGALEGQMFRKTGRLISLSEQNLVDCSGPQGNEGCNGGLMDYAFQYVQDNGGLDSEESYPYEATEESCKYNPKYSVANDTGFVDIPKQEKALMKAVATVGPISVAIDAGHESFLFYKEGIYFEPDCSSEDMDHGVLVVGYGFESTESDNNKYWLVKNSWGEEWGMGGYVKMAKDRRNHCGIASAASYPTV
Cathepsin (H and K) (Homo sapiens), sequence (P09668 whole entry, looked up, one chain of several): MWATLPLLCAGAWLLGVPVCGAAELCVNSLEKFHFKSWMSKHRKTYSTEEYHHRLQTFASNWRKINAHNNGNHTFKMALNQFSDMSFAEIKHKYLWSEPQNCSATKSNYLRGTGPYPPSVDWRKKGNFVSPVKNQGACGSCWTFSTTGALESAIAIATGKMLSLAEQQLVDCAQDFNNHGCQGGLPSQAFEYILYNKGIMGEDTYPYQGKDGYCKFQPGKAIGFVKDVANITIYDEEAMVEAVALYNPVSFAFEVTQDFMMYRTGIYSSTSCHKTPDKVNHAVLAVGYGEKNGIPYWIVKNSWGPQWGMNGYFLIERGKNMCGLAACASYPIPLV

Compound | IC50 (Cathepsin K) [nM] | further results
CCCC[C@H](NC(=O)OCC1(CSc2nccn2C)CCC1)C(=O)C(=O)N[C@H](C)c1ccccc1 | 61 | –
CCCC[C@H](NC(=O)OCC1(COc2nc(-c3ccc(C)cc3)cs2)CCC1)C(=O)C(=O)N[C@H](C)c1ccccc1 | 150 | –
CCCC[C@H](NC(=O)OCC1(COc2ccnc(N3CCN(C)CC3)n2)CCC1)C(=O)C(=O)N[C@H](C)c1ccccc1 | 54 | –
CCCC[C@H](NC(=O)OCC1(COc2ncccn2)CCC1)C(=O)C(=O)N[C@H](C)c1ccccc1 | 260 | –
CCCC[C@H](NC(=O)OCC1(COc2nnc(C)cc2-c2ccccc2)CCC1)C(=O)C(=O)N[C@H](C)c1ccccc1 | 57 | –
CCCC[C@H](NC(=O)OCC1(CCCOc2ccnc(Cl)n2)CCC1)C(=O)C(=O)N[C@H](C)c1ccccc1 | > 12000 | –
CCCC[C@H](NC(=O)OCC1(COc2ncnc3ccsc23)CCC1)C(=O)C(=O)N[C@H](C)c1ccccc1 | 98 | –
CCCC[C@H](NC(=O)OCC1(CSc2nc3ccccc3o2)CCC1)C(=O)C(=O)N[C@H](C)c1ccccc1 | 51 | –
CCCC[C@H](NC(=O)OCC1(CSc2nccn2-c2ccccc2)CCC1)C(=O)C(=O)N[C@H](C)c1ccccc1 | 87 | –
CCCC[C@H](NC(=O)OCC1(COc2ccnc(N3CCOCC3)n2)CCC1)C(=O)C(=O)N[C@H](C)c1ccccc1 | 54 | –
CCCC[C@H](NC(=O)OCC1(CCSc2nccn2C)CCC1)C(=O)C(=O)N[C@H](C)c1ccccc1 | > 12000 | –
CCCC[C@H](NC(=O)OCC1(CSc2ncc(-c3ccc(Cl)cc3)n2C)CCC1)C(=O)C(=O)N[C@H](C)c1ccccc1 | 230 | –
CCCC[C@H](NC(=O)OCC1(CCCSc2nccn2C)CCC1)C(=O)C(=O)N[C@H](C)c1ccccc1 | 1900 | –
CCCC[C@H](NC(=O)OCC1(COc2ccnc(Cl)n2)CCC1)C(=O)C(=O)N[C@H](C)c1ccccc1 | 85 | –

Second part, led by results:

IC50 (Cathepsin K) [nM] | Compound | further results
50 | CCCC[C@H](NC(=O)OCC1(COc2nc(-c3ccccc3)ns2)CCC1)C(=O)C(=O)N[C@H](C)c1ccccc1 | –
17 | CCCC[C@H](NC(=O)OCC1(CSc2nccs2)CCC1)C(=O)C(=O)N[C@H](C)c1ccccc1 | Selectivity [1]: 4; Selectivity [2]: > 720; Selectivity [3]: 250; Selectivity [4]: 390; Selectivity [5]: 41
5.5 | CCCC[C@H](NC(=O)OCC1(Cc2nc(-c3ccccc3)cs2)CCC1)C(=O)C(=O)N[C@H](C)c1ccccc1 | Selectivity [1]: 22; Selectivity [2]: > 230; Selectivity [3]: 220; Selectivity [4]: 660; Selectivity [5]: 20
9.5 | CCCC[C@H](NC(=O)OCC1(CSc2nccc(-c3ccc(Cl)cc3)n2)CCC1)C(=O)C(=O)N[C@H](C)c1ccccc1 | –
31 | CCCC[C@H](NC(=O)OCC1(COc2ccnc(N3CCN(c4ccccc4)CC3)n2)CCC1)C(=O)C(=O)N[C@H](C)c1ccccc1 | –
11 | CCCC[C@H](NC(=O)OCC1(CSc2ncccn2)CCC1)C(=O)C(=O)N[C@H](C)c1ccccc1 | –
37 | CCCC[C@H](NC(=O)OCC1(COc2nccs2)CCC1)C(=O)C(=O)N[C@H](C)c1ccccc1 | –
